Assay results: US10301267B2, “Compounds” (AstraZeneca AB, priority 2006, dated 2019)

Legend:
FGFR1 active kinase = FGFR1 active kinase (Homo sapiens, UniProt P11362); assay: FGFR Kinase assay - Caliper Echo Dosing; type: biochemical; conditions: FGFR1 7.2 nM, 408 uM ATP, acoustic dosing; geometric mean of n
[1] = target: T1, His6-tagged FGFR kinase domain (Homo sapiens, UniProt P11362, C488A/C584S); assay: FGFR Kinase assay - Elisa; type: biochemical; conditions: FGFR inhibition test, Elisa; read-out: Activity class (FGFR Kinase assay - Elisa)
T1 construct: FGFR kinase domain (amino acids 458-765, C488A, C584S) N-terminally fused to a His6-tag and TEV cleavage site; His6-tag plus linker and TEV cleavage site (printed as X1); made in house
Method: To determine inhibition of FGFR activity, kinase assays were conducted using ELISA (Enzyme-Linked Immunosorbent Assay) technology.
Kinase activity assays were performed in 384-well polypropylene plates (Matrix, Catalogue No. 4311. Matrix are part of Thermo Fisher Scientific, 22 Friars Drive, Hudson, N.H. 03051, USA) with a total volume of 40 μl in each well. Each well was coated with 2 μg of polyEAY substrate (Sigma, Catalogue No. P3899) at 4° C. overnight. The plates were then washed once with 100 μl PBS and once with 100 μl 50 mM HEPES (pH 7.4) prior to the addition of the kinase assay reagents. Reactions contained His6-tagged FGFR kinase domain (FGFR kinase domain (amino acids 458-765, C488A, C584S) N-terminally fused to a His6-tag and TEV cleavage site encoded by the following sequence; [[…]]. The final alanine denotes the start of the FGFR protein sequence. The resultant protein was expressed and purified based on Mohammadi et al, Cell Vol 86, 577-587 (1996). Each kinase reaction contained 0.1 ng His6-tagged FGFR kinase domain, 50 mM HEPES (pH 7.4), 0.1 mM Na3VO4, 0.1 mM DTT, 0.05% (v/v) Triton X100, 20 mM MgCl2, 160 μM ATP. Various concentrations of test compounds were each added in 5% (v/v) DMSO to yield a final assay DMSO concentration of 1.25% (v/v). The kinase reactions were incubated at room temperature for 45 minutes and stopped by washing the plate three times with 100 μl PBS plus 0.05% Tween. 40 μl of a one in 10000 dilution of 4G10-HRP antibody (Upstate Biotechnology, UBI 16-105. Upstate are part of Millipore Corporation, 290 Concord Road, Billerca Mass. 01821 USA) made up in 0.5% (w/v) BSA/PBS was then added to each well and the plates incubated at room temperature for one hour. Following this, the plates were then washed repeatedly with 100 μl PBS plus 0.05% Tween to remove all traces of the antibody solution. 40 μl of 50 μg/ml 3,3′,5,5′-Tetramethylbenzidine (Sigma, Catalogue No. T2885), 0.05M phosphate-citrate buffer, containing 0.03% sodium perborate was added to each well and the plates incubated at room temperature for twelve minutes. The colour reaction was stopped by the addition of 20 μl 2M H2SO4 and the plates read at 450 nm on a Spectrafluor Plus (Tecan Trading AG, Switzerland). In the assay, compounds were tested at a range of concentrations.
Percentage inhibition at 1 uM, as expressed herein, is a calculated value based on the curve fit that was generated experimentally. From the fitted curve plot, the effect of compound at a concentration of 1 uM was calculated as a percentage inhibition. The IC50 value is the concentration of test compound that inhibits 50% of FGFR kinase activity.

[2] = test system: bFGF stimulated Erk phosphorylation in NIH 3T3 cells; assay: Cell pErk - growth factor stimulated Erk phosphorylation; type: cell-based; conditions: Mus musculus, NIH3T3, 3 ng/ml bFGF, read-out: Activity class (Cell pErk)
Text: Cell Assays Cell pErk—Growth Factor Stimulated Erk Phosphorylation
These and other assays were used to evaluate the ability of a test compound to inhibit growth factor stimulated cellular signalling in mammalian cell lines. This was achieved by measuring the amount of receptor tyrosine kinase regulated Erk phosphorylation within a cell following compound treatment.
NIH 3T3 (ECACC, 93061524) cells were routinely passaged in DMEM (Gibco BRL, 41966) plus 10% foetal calf serum (FCS), 1% L-glutamine (Gibco BRL, 25030) to a confluence not greater than 80%. To undertake the assay, NIH 3T3's were seeded at 1×10^4 cells/well in DMEM plus 10% foetal calf serum, 1% L-glutamine in 96 well plates (Costar, 3904) and incubated at 37° C. (+5% CO2) in a humidified incubator. Once the cells had fully adhered (typically following 4-5 hours incubation) the media was removed from each well and the cells gently washed with 100 μl warm serum free media. 90 μl of serum free DMEM plus 1% L-glutamine was then added to each well and the plates were returned to a humidified 37° C. (+5% CO2) incubator. The following day, the plates were dosed with 10 μl compound (diluted from 10 mM stock in DMSO using serum free DMEM) and the plates were returned to a humidified 37° C. (+5% CO2) incubator for one hour. NIH 3T3 cells were then stimulated with a final concentration of 3 ng/ml bFGF (Sigma, F0291) for 20 minutes at 37° C. Following stimulation the cells were fixed by adding formaldehyde (4% v/v final concentration) and incubating at room temperature for 20 minutes. The fixative solution was then removed and the wells were washed twice with 100 μl phosphate buffered saline (PBS/A) before permeabilising the cells by the addition of 50 μl/well 0.1% triton/PBS/A for 10 minutes at room temperature. The permeabilisation solution was then removed and the cells washed twice more with 100 μl/well PBS/A before the addition of 50 μl/well anti-phospho p44/42 antibody (Cell Signalling Technology, 9106), diluted 1/500 with PBS/A plus 10% FCS. The anti-phospho p44/42 antibody recognises Erk phosphorylated at threonine 202 and tyrosine 204. Following incubation at room temperature for 2 hours, the antibody solution was removed and the wells were washed twice with 100 μl/well PBS/A. 50 μl/well 1/250 goat anti-mouse alexa fluor 488 secondary antibody (Molecular Probes, A11001) and 1/10000 Hoescht (Molecular Probes, H-3570) diluted with PBS/A plus 10% FCS was added and the plate incubated in the dark at room temperature for one hour. Finally, the plates were washed three times with 100 μl/well PBS/A, leaving the final wash in the wells before sealing the plates. The plates were read at 350 nm and 488 nm using an Arrayscan (Cellomics). […] IC50 value is the concentration of test compound that inhibits 50% of Erk phosphorylation.

[3] = target: T2, transiently expressed FGFR1 IIIc in Cos-1 cells (Homo sapiens, UniProt P11362); assay: Cell FGFR1 - cell based inhibition of transiently expressed FGFR1 IIIc phosphorylation; conditions: phospho-FGFR1
T2 construct: The clone was full-length, wild-type FGFR1 IIIc isoform; host or cells: Cos-1
Text: Cell FGFR1—Cell Based Inhibition of Transiently Expressed FGFR1 IIIc Phosphorylation (Measured Using Phospho-Specific Primary and Fluorescent Secondary Antibodies).
This assay is designed to detect inhibitors of transiently expressed FGFR1 phosphorylation by antibody staining of fixed cells detected using ArrayScan technology. (For a description of Array Scan technology see http://www.cellomics.com/content/menu/Arrayscan/)
Cos-1 cells were routinely passaged in DMEM (Gibco BRL, 41966) plus 3% foetal calf serum (FCS), 1% L-glutamine (Gibco BRL, 25030) to a confluence of 80%. To undertake the assay, Cos-1 cells were harvested at 90-95% confluence for cell transfection. […]
The harvested Cos-1 cells are counted using a coulter counter and diluted further with 1% FCS/DMEM to 2.5×10^5 cells/ml. […]
Following incubation at room temperature for 1 hour, the antibody solution was removed and the wells were washed once with 200 ul/well PBS/A. Then 40 μl 1/500 secondary antibody (A111005; goat anti-mouse 594) solution and 1/10000 Hoechst (diluted together in PBS/A with 10% FCS+0.1% Tween 20) were added and the plate incubated in the dark at room temperature for one hour. […] The plates were read on an Arrayscan (Cellomics). […]

T2 sequence (P11362 22-822): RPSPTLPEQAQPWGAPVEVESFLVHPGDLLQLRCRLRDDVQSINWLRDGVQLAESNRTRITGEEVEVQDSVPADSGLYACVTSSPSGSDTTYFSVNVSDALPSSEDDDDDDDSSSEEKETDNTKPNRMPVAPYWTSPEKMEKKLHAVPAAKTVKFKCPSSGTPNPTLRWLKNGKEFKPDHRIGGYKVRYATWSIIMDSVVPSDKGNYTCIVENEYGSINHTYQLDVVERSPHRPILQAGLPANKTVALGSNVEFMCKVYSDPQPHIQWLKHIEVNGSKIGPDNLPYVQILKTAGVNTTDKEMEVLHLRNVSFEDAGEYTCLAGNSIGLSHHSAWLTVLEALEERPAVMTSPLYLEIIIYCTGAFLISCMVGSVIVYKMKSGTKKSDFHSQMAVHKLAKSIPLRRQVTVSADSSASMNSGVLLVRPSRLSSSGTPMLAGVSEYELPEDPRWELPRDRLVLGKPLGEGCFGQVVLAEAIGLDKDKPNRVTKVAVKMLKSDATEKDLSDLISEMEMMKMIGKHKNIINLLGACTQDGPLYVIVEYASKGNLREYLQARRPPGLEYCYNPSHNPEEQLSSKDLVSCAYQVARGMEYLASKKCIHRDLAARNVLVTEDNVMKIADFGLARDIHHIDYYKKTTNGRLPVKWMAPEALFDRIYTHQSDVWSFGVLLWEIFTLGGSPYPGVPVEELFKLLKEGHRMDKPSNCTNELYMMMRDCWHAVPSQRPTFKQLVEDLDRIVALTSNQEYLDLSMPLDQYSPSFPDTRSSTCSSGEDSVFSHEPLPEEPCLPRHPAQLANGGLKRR
T1 sequence (P11362 458-765 C488A/C584S): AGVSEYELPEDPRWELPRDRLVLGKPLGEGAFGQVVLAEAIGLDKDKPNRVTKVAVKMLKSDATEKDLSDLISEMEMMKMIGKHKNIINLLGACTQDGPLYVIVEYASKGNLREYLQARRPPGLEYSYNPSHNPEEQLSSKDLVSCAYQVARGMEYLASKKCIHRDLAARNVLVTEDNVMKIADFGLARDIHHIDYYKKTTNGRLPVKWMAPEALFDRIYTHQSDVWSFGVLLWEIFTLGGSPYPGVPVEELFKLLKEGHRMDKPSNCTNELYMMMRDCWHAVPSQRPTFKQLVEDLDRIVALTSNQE
FGFR1 active kinase, sequence (P11362 22-822): as the sequence (P11362 22-822) above

| IC50 (FGFR1 active kinase) [nM] | IC50 [1] [nM] | IC50 [3] [nM] | SMILES | IC50 [2] [nM] |
| --- | --- | --- | --- | --- |
| 0.85 | < 300 |  | COc1cc(CCc2cc(NC(=O)c3ccc(N4CCN(C)CC4)cc3)[nH]n2)cc(OC)c1 [Example 10, N-[5-[2-(3,5-dimethoxyphenyl)ethyl]-2H-pyrazol-3-yl]-4-(4-methylpiperazin-1-yl)benzamide] | < 300 |
|  |  | 1470 | COc1cc(CCc2cc(NC(=O)c3ccc(CC(C)N)cc3)n[nH]2)cc(OC)c1 (centres unmarked) [Example 49, 4-(2-Aminopropyl)-N-[5-[2-(3,5-dimethoxyphenyl)ethyl]-1H-pyrazol-3-yl]benzamide] |  |
|  |  | 460 | COc1cc(CCc2cc(NC(=O)c3ccc(OCCN4CCC(F)(F)CC4)cc3)n[nH]2)cc(OC)c1 [Example 55, 4-[2-(4,4-Difluoro-1-piperidyl)ethoxy]-N-[5-[2-(3,5-dimethoxyphenyl)ethyl]-1H-pyrazol-3-yl]benzamide] |  |
